{"source": "patent US6552014B2", "about": "“Methods of inhibiting platelet activation with selective serotonin reuptake inhibitors” (HeartDrug Research, L.L.C., priority 1999, dated 2003)", "key": {"P-selectin [1]": {"system": "P-selectin", "experiment": "Whole blood flow cytometry", "assay_type": "cell-based, human", "settings": "for P-Selectin (% +), % of cell positivity: Whole Blood", "source_text": "For ex vivo assessment of the SSRIs effect on a PAM, a level of a PAM can be assessed by flow cytometry by first obtaining a sample that comprises platelets and then contacting the sample with a platelet activation agonist, such as phorbol myristate acetate (PMA), ADP (adenosine diphosphate), thrombin, collagen, and/or TRAP (thrombin receptor activating peptide), under conditions suitable for activation of platelets in the sample. The sample is in contact with the agonist preferably for a period of time effective to maximally activate the platelets. […] Then one contacts or stains the samples with a composition that comprises an anti-PAM antibody e.g., having a fluorescent label, preferably in an amount in excess of that required to bind the PAM expressed on the platelets, under conditions suitable for the formation of labeled complexes between the anti-PAM antibody and activated platelets. Then the formation of the complex in the sample is determined (detected or measured).\nFour cc of blood was collected in a tube, containing 2 cc of acid-citrate-dextrose (ACD) (7.3 g citric acid, 22.0 g sodium citrate×2H2O and 24.5 glucose in a total amount of 1000 mL distilled water) and mixed well. The buffer, TBS (10 mM Tris, 0.15 M NaCl, pH 7.4) and the following fluorescein isothiocyanate (FITC) conjugated monoclonal antibodies (PharMingen, San Diego, Calif. USA, and DAKO, Calif., USA) were removed from a refrigerator and allowed to warm at room temperature (RT): CD41 (IIb/IIIa), CD31 (PECAM-1), CD62p (P-selectin), CD51/61 (Vitronectin receptor). Six amber tubes (1.25 ml) were obtained and marked. One Eppendorf tube (1.5 ml) was labeled with “Dill WB”, Patient ID #, Initial and Date. The amber tubes and Eppendorf tube were placed in the rack. […] of TBS buffer was pipetted to the labeled Eppendorf tube. The patient's whole blood tube was inverted gently twice to mix. 50 μl of whole blood was pipetted to the “Dill WB” labeled Eppendorf tube. The Eppendorf tube was capped and the diluted whole blood was mixed by inverting the Eppendorf tube gently two times 50 μl of diluted whole blood was pipetted to each amber tube. 5 μl of appropriate antibody was pipetted to the bottom of the corresponding amber tube. The tubes were covered with aluminum foil and incubated at 4° C. for 30 minutes. After incubation, 400 μl of 2% buffered paraformaldehyde was added. To prepare 2% Paraformaldehyde:Dilute 1 part 10% paraformaldehyde with 4 parts TBS. This solution was stored at 4° C. for up to one week. The amber tubes were closed with a lid tightly and stored in a refrigerator at 4° C. until the flow cytometric analysis. The samples are analyzed on a Becton Dickinson FACScan flow cytometer. The instrument is set up to measure forward light scatter (FSC), and FITC fluorescence. All parameters are collected using four decade logarithmic amplification.\nThe data in table 1 was obtained using the methods described herein, and in particular, in Examples 1 and 2. The levels of various PAMs were assess from samples of human volunteers. […] Baseline levels of the PAMs were also obtained (without exposure to sertraline or NDMS)."}, "P-selectin [2]": {"system": "P-selectin", "experiment": "Flow cytometry of platelet antigen expression, platelet rich plasma", "assay_type": "cell-based, human", "settings": "PRP", "source_text": "For ex vivo assessment of the SSRIs effect on a PAM, a level of a PAM can be assessed by flow cytometry by first obtaining a sample that comprises platelets and then contacting the sample with a platelet activation agonist, such as phorbol myristate acetate (PMA), ADP (adenosine diphosphate), thrombin, collagen, and/or TRAP (thrombin receptor activating peptide), under conditions suitable for activation of platelets in the sample. The sample is in contact with the agonist preferably for a period of time effective to maximally activate the platelets. […] Then the formation of the complex in the sample is determined (detected or measured). […] The blood-ACD mixture was centrifuged at 1000 r.p.m. for 10 minutes at room temperature. […] The PRP was then centrifuged at 3000 r.p.m. for 10 minutes. […] All cells were then divided into ten plastic capped tubes. Nine portions of washed platelets were incubated with 5 μfluorescein isothiocyanate (FITC)-conjugated antibodies in the dark at +4 °C for 30 minutes, and one part remained unstained and served as a negative control. […] The instrument was calibrated daily with fluorescence beads (CaliBRITE; Becton Dickinson) and measured FITC-conjugated fluorescence intensity. All parameters were obtained using four decade logarithmic amplification. The data was collected and stored in list mode, and then analyzed using CELLQuest® (version 1.2.2) software. Procedures are described in detail in (Gurbel, P. […] Serebruany, V. […] The levels of various PAMs were assess from samples of human volunteers."}, "CD9": {"system": "CD9", "experiment": "Flow cytometry of platelet antigen expression, platelet rich plasma", "assay_type": "cell-based, human", "settings": "PRP; healthy volunteers; desmethylsertraline 64.2 ng/ml"}, "GP IIIa": {"system": "GP IIIa", "experiment": "Flow cytometry of platelet antigen expression, platelet rich plasma", "assay_type": "cell-based, human", "settings": "PRP, desmethylsertraline 64.2 ng/ml"}, "[3]": {"settings": "in vivo; cited from earlier work"}, "PECAM-1": {"system": "PECAM-1", "experiment": "Ex vivo soluble PECAM-1 plasma levels in patients", "set-up": "species or system human", "settings": "patients with depression following myocardial infarction; after 16 weeks of the sertraline/placebo therapy", "protocol": "Soluble P-selectin (Centocor, Inc., Malvern, Pa. USA); and PECAM-1 (Bender MedSystems, Vienna, Austria) are measured Plasma samples will be extracted with ethanol and then stored at −80° C. before final determination. Enzyme-linked immunosorbent assays will be used according standard techniques and as described herein."}, "[4]": {"settings": "healthy volunteers, desmethylsertraline 31.1 ng/ml"}, "[5]": {"settings": "healthy volunteers, desmethylsertraline 64.2 ng/ml"}, "[6]": {"settings": "healthy volunteers, desmethylsertraline 143 ng/ml"}, "[7]": {"settings": "post-angioplasty patient on aspirin, desmethylsertraline 31.1 ng/ml"}, "[8]": {"settings": "post-angioplasty patient on aspirin, desmethylsertraline 64.2 ng/ml"}, "[9]": {"settings": "post-angioplasty patient on aspirin, desmethylsertraline 143 ng/ml"}}, "data": [{"smiles": "N[C@H]1CC[C@@H](c2ccc(Cl)c(Cl)c2)c2ccccc21", "note": "[Desmethyl sertraline, N-desmethylsertraline]", "values": [{"measurement": "P-Selectin (% +), % of cell positivity", "setting": "P-selectin [1]; [4]", "value": 1.2, "unit": "%"}, {"measurement": "P-Selectin (% +), % of cell positivity", "setting": "P-selectin [1]; [5]", "value": 3.3, "unit": "%"}, {"measurement": "P-Selectin (% +), % of cell positivity", "setting": "P-selectin [1]; [6]", "value": 0.4, "unit": "%"}, {"measurement": "P-Selectin (% +), % of cell positivity", "setting": "P-selectin [1]; [7]", "value": 10.68, "unit": "%"}, {"measurement": "P-Selectin (% +), % of cell positivity", "setting": "P-selectin [1]; [8]", "value": 8.04, "unit": "%"}, {"measurement": "P-Selectin (% +), % of cell positivity", "setting": "P-selectin [1]; [9]", "value": 9.92, "unit": "%"}, {"measurement": "P-selectin expression (FIG. 4), in words", "setting": "P-selectin [1]; whole blood, post-angioplasty patient, increasing concentrations", "value": "striking decreases in expression"}, {"measurement": "P-selectin (mean) log fluorescence intensity", "setting": "P-selectin [2]; [4]", "value": 11.8}, {"measurement": "P-selectin (peak) log fluorescence intensity", "setting": "P-selectin [2]; [4]", "value": 459}, {"measurement": "P-selectin (mean) log fluorescence intensity", "setting": "P-selectin [2]; [5]", "value": 10.5}, {"measurement": "P-selectin (peak) log fluorescence intensity", "setting": "P-selectin [2]; [5]", "value": 494}, {"measurement": "P-selectin (mean) log fluorescence intensity", "setting": "P-selectin [2]; [6]", "value": 13.5}, {"measurement": "P-selectin (peak) log fluorescence intensity", "setting": "P-selectin [2]; [6]", "value": 398}, {"measurement": "P-selectin (mean) log fluorescence intensity", "setting": "P-selectin [2]; [7]", "value": 15}, {"measurement": "P-selectin (peak) log fluorescence intensity", "setting": "P-selectin [2]; [7]", "value": 322}, {"measurement": "P-selectin (mean) log fluorescence intensity", "setting": "P-selectin [2]; [8]", "value": 11}, {"measurement": "P-selectin (peak) log fluorescence intensity", "setting": "P-selectin [2]; [8]", "value": 537}, {"measurement": "P-selectin (mean) log fluorescence intensity", "setting": "P-selectin [2]; [9]", "value": 13.4}, {"measurement": "P-selectin (peak) log fluorescence intensity", "setting": "P-selectin [2]; [9]", "value": 378}, {"measurement": "CD9 (mean) log fluorescence intensity", "setting": "CD9", "value": 859}, {"measurement": "GP IIIa (peak) log fluorescence intensity", "setting": "GP IIIa; healthy volunteers", "value": 1144}, {"measurement": "GP IIIa (mean) log fluorescence intensity", "setting": "GP IIIa; post-angioplasty patient on aspirin", "value": 1247}]}, {"smiles": "CN[C@H]1CC[C@@H](c2ccc(Cl)c(Cl)c2)c2ccccc21", "note": "[sertraline]", "values": [{"measurement": "half life", "setting": "[3]", "value": "25 to 32", "unit": "h"}, {"measurement": "ex vivo PECAM-1 plasma levels, in words", "setting": "PECAM-1", "value": "Mild, but consistent reduction"}]}]}
